Laboratory results published in patent US12448398B2, “Semi-synthetic analogues of epipolythiodioxopiperazine alkaloids” (Ohio State Innovation Foundation, priority 2019, dated 2025).

How the values were obtained:
[1] = test system: metastatic colon carcinoma; details: combined treatment of 3 and 5-fluorouracil; cited from earlier work
[2] = test system: PANC02-H7 or UN-KC-6141 cells; details: combination of 3 and anti PD-L1; cited from earlier work
[3] = target: MLL1 (Homo sapiens, UniProt Q03164); details: in pancreatic cancer; cited from earlier work
Chain of MLL1 (Q15291 whole entry): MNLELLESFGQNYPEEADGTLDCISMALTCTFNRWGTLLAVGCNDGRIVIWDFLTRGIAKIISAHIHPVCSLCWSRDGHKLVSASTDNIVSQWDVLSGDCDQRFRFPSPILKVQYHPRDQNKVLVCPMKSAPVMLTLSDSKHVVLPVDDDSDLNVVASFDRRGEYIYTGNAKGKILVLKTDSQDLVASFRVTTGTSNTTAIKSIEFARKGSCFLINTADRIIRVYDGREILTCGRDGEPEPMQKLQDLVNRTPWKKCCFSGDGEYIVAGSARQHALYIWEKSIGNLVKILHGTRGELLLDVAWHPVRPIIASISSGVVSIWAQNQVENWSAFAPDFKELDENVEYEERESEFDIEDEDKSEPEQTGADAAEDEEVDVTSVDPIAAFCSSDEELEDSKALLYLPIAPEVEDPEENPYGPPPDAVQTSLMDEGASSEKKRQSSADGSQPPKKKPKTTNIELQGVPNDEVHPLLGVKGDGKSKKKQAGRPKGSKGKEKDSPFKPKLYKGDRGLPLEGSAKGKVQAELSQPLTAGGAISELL
Chain of MLL1 (Q9UBL3 96-628, further chain): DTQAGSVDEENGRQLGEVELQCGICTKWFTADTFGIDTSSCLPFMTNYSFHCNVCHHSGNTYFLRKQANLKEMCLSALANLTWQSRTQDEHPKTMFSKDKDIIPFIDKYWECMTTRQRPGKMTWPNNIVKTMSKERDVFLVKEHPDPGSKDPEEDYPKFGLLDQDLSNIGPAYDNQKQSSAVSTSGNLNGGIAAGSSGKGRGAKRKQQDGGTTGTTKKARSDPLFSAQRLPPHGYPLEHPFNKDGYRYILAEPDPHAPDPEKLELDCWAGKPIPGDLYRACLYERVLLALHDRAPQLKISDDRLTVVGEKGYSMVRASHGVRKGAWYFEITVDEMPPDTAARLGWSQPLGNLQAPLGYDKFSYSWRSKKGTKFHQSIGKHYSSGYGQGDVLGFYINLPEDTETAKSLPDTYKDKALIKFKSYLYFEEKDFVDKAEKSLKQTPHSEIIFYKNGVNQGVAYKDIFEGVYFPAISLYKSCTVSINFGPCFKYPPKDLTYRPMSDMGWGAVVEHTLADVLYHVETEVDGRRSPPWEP
Chain of MLL1 (Q03164 3745-3969): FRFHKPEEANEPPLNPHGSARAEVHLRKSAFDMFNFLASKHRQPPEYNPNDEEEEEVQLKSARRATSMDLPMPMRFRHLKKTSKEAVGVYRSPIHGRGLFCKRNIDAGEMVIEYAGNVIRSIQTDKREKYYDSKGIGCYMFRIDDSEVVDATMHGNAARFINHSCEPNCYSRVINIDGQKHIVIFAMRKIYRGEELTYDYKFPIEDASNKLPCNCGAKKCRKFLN

[4] = test system: panel of cancer cell lines; details: cited from earlier work
[5] = test system: MDA-MB-435, MDA-MB-231 and OVCAR3 cells; experiment: Cytotoxicity assay against a panel of three cancer cell lines (CellTiter 96 AQueous, 72 h); assay type: cell-based, human; details: panel MDA-MB-435, MDA-MB-231, OVCAR3; relative to parent natural product
Method: (§1) Human melanoma cancer cells (MDA-MB-435), human breast cancer cells (MDA-MB-231) and human ovarian cancer cells (OVCAR3) were obtained from the American Type Culture Collection (Manassas, VA). The cell lines were cultured in RPMI 1640 medium containing fetal 10% bovine serum, 100 unites/mL penicillin and 100 μg/mL streptomycin. The cells were grown at 37° C. under 5% CO2, and then harvested during the log-phase growth by trypsinization followed by two washing to remove all traces of enzymes. Cells were seeded in 96-well clear, flat-bottom plate (Microtest 96, Falcon) at a density of 5000 cells per well. Each plate was incubated overnight at 37° C. under 5% CO2. Samples dissolved in DMSO were diluted and added to the appropriate wells to give final concentrations of 20, 4, 0.8, 0.16, and 0.032 μM for pure compounds, and a total volume of 100 μL and 0.5% DMSO per well. The cells with the test samples were then incubated for 72 h at 37° C. Cell viability was examined using a commercial absorbance assay (CellTiter 96® AQueous One Solution Cell Proliferation Assay, Promega Corp, Madison, WI). IC50 values were determined as the concentration required to diminish cellular growth by 50% compared to the untreated controls after 72 h of continuous exposure. Taxol (Paclitaxel) was used as a positive control.
Human melanoma cancer cells (MDA-MB-435), human breast cancer cells (MDA-MB-231) and human ovarian cancer cells (OVCAR3) were produced from the American Type Culture Collection (Manassas, VA). RPMI 1640 medium (fetal 10% bovine serum, 100 unites/mL penicillin and 100 μg/mL streptomycin) was used to culture cell lines. The cells were grown at 37° C. under 5% CO2, then harvested during the log-phase growth by trypsinization followed by two washing to remove all traces of enzymes. 96-well clear, flat-bottom plate (Microtest 96, Falcon) was used to seed the cells at a density of 5000 cells per well. […] Cell viability was examined using a commercial absorbance assay (CellTiter 96® AQueous One Solution Cell Proliferation Assay, Promega Corp, Madison, WI). […]

[6] = test system: MDA-MB-231 cells; experiment: Cytotoxicity assay, human breast cancer cells; assay type: cell-based; details: vs verticillin H
Method: as §1, with “The cells with the test samples were then incubated for 72 h at 37° C.” left out, “IC50 values were determined as the concentration required to diminish cellular growth by 50% compared to the untreated controls after 72 h of continuous exposure. Taxol (Paclitaxel) was used as a positive control.” left out
(§2) Human melanoma cancer cells (MDA-MB-435), human breast cancer cells (MDA-MB-231) and human ovarian cancer cells (OVCAR3) were produced from the American Type Culture Collection (Manassas, VA). […] Cell viability was examined using a commercial absorbance assay (CellTiter 96® AQueous One Solution Cell Proliferation Assay, Promega Corp, Madison, WI). […]

[7] = test system: OVCAR3 cells; experiment: Cytotoxicity assay, human ovarian cancer cells; assay type: cell-based; details: vs verticillin H
Method: as §1, with “The cells with the test samples were then incubated for 72 h at 37° C.” left out, “IC50 values were determined as the concentration required to diminish cellular growth by 50% compared to the untreated controls after 72 h of continuous exposure. Taxol (Paclitaxel) was used as a positive control.” left out
as §2

CN1C(=O)C23SSC1(C)C(=O)N2C1Nc2ccccc2C1(C12c4ccccc4NC1N1C(=O)C4(C)SSC1(C(=O)N4C)C2O)C3O (centres unmarked) [Compound 3, verticillin A]
Tumor size compared to control [1]: significantly smaller tumors
Tumor size [2]: significantly smaller tumor size
IC50 [3]: 800 nM
Cytotoxicity level, in words [4]: nanomolar cytotoxicity

CCCC(=O)O[C@H]1[C@]2([C@@]34c5ccccc5N[C@@H]3N3C(=O)[C@]5(CC)SS[C@]3(C(=O)N5C)[C@H]4O)c3ccccc3N[C@@H]2N2C(=O)[C@]3(CC)SS[C@]12C(=O)N3C [Compound 12]
Potency compared with the parent compound, in words [5]: more potent

CC[C@@]12SS[C@]3(C(=O)N1C)[C@@H](O)[C@]1([C@@]45c6ccccc6N[C@@H]4N4C(=O)[C@]6(CC)SS[C@]4(C(=O)N6C)[C@H]5OC(=O)C(C)(C)C)c4ccccc4N[C@@H]1N3C2=O [Compound 14]
Potency compared with the parent compound, in words [5]: more potent

CCOC(=O)O[C@H]1[C@]2([C@@]34c5ccccc5N[C@@H]3N3C(=O)[C@]5(CC)SS[C@]3(C(=O)N5C)[C@H]4O)c3ccccc3N[C@@H]2N2C(=O)[C@]3(CC)SS[C@]12C(=O)N3C [Compound 16]
Potency compared with the parent compound, in words [5]: more potent
Fold increase of potency relative to parent compound [6]: 4.4 fold

CC[C@@]12SS[C@]3(C(=O)N1C)[C@@H](O)[C@]1([C@@]45c6ccccc6N[C@@H]4N4C(=O)[C@]6(CC)SS[C@]4(C(=O)N6C)[C@H]5OS(=O)(=O)c4ccc(F)cc4)c4ccccc4N[C@@H]1N3C2=O [Compound 17]
Fold loss of potency relative to parent compound [6]: 1.6 fold
Fold increase of potency relative to parent compound [7]: 2.9 fold

CC[C@@]12SS[C@]3(C(=O)N1C)[C@@H](O)[C@]1([C@@]45c6ccccc6N[C@@H]4N4C(=O)[C@]6(CC)SS[C@]4(C(=O)N6C)[C@H]5OC(=O)N(C)C)c4ccccc4N[C@@H]1N3C2=O [Compound 19]
Fold increase of potency relative to parent compound [7]: 12.0 fold
